Test results published in patent US20100029652A1, “Combination Therapy For Treating Hepatitis C Infections” (ACHILLION PHARMACEUTICALS, INC., priority 2007, published 2010).

Key:
[1] = system: HCV replicon in Huh-9-13 cells; assay: Long term combination study: replicon curing assay, colony formation after G418 selection; assay type: cell-based, hepatitis C virus; conditions: approximately 5×EC50
Method: In other repetitions of this experiment, treatment time varied from 7 to 10 days. Cells were passaged once every 3 days into new plates at the same density (10^5 cells/plate) and with fresh compounds. No G418 was present during the 9 day treatment. On day 10, the cells were passaged again to new plates at a density of 10^5 cells/plate, respectively, and were treated only with G418 for approximately 3 more weeks. […] During the 2˜3 weeks, the old media were replaced with fresh media twice a week. The colonies were fixed with 10% formaldehyde and stained with 2% crystal violet in 20% ethanol.
In this assay, the number of the cells in which the replicons still remained after the 9-day treatment was quantified based on the number of the colonies formed after G418 selection.

[2] = system: HCV replicon (subtype 1b, Con-1) in Huh-luc/neo cells; assay: Short term combination study: HCV replicon luciferase assay in Huh-luc/neo cells, 3-days treatment; assay type: cell-based, hepatitis C virus; conditions: for CI (SD) at Replicon inhibition of 50% / CI (SD) at Replicon inhibition of 75% / CI (SD) at Replicon inhibition of 90%: combined with ACH-806, Chou and Talalay; for CI (SD) at Replicon inhibition of 50% / CI (SD) at Replicon inhibition of 75% / CI (SD) at Replicon inhibition of 90% / Overall combinatory antiviral activity / Volume (SD) Antagonism / Volume (SD) Synergy: 3-days treatment; for Overall combinatory antiviral activity / Volume (SD) Antagonism / Volume (SD) Synergy: drug combined with ACH-806; for Volume (SD) Antagonism / Volume (SD) Synergy: Prichard and Shipman model; for combination effect on antiviral activity: in combination with ACH-806, Huh-luc/neo cells treated for 3 days
Method: Huh-luc/neo cells were seeded in 96-well plates at a density of 7000 cells/per well. […] Dose-response curves for the individual compounds and their combinations were all run in quadruplicate.
The experimental data were analyzed using CalcuSyn (Biosoft, Ferguson, Mo.), a computer program based on the method of Chou and Talalay (Chou, T. C. and P. Talalay, Quantitative analysis of dose-effect relationships: the combined effects of multiple drugs or enzyme inhibitors (1984) Adv. Enzyme Regul. 22: 27-55). In this model, the dose-effect curves for each drug or drug combination are converted to median-effect plots with the program. The effect of combination is then compared to that of a single agent. A combination index (CI) value for each experimental combination is calculated on the basis of the following equation:
CI=[(D)1/(Dx)1]+[(D)2/(Dx)2]+[(D)1(D)2/(Dx)1(Dx)2],
By convention a CI of <0.9 is considered synergistic, a CI of ≧0.9 or ≦1.1 is considered additive, and a CI of >1.1 is deemed antagonistic.
The extent of synergy or antagonism was also assessed in a three-dimensional analytical method developed by Prichard and Shipman (Prichard, M. Shipman, K., A three-dimensional model to analyze drug-drug interactions, (1990) Antiviral Res. 14: 181-206). In this model, the theoretical additive effect is calculated from the dose-response curves of individual compounds by the equation Z=X+Y(1−X), where X and Y represent the inhibition produced by drug 1 alone and drug 2 alone, and respectively Z represents the effect produced by the combination of drug 1 and drug 2. The theoretical additive surface is subtracted from the actual experimental surface, resulting in a surface that would appear as a horizontal plane at 0% inhibition if the combination were merely additive. Any peak above this plane would indicate synergy, whereas any depression below it would indicate antagonism. The 95% confidence intervals for the experimental dose-response surface are used to evaluate the data statistically. The volume of the peak or depression is calculated to quantify the overall synergy or antagonism produced. Based on Prichard et al., volumes of synergy greater than 50 μM^2% may be considered significant as may volumes of antagonism of less than −50 μM^2%, wherein the units of the X and Y axis are both μM and the unit of the Z axis is the percentage of inhibition. Results

[3] = single agent by itself, 9-day treatment
[4] = in combination with ACH-806, 9-day treatment

SMILES	log reduction of replicon-containing cells [1, 3] [log]	replicon-containing cells cured [1, 3]	log reduction of replicon-containing cells [1, 4] [log]	replicon-containing cells cured [1, 4] [%]	CI (SD) at Replicon inhibition of 50% ([2]; molar ratio 1:16)	CI (SD) at Replicon inhibition of 75% ([2]; molar ratio 1:16)	CI (SD) at Replicon inhibition of 90% ([2]; molar ratio 1:16)	CI (SD) at Replicon inhibition of 50% ([2]; molar ratio 1:32)	CI (SD) at Replicon inhibition of 75% ([2]; molar ratio 1:32)	CI (SD) at Replicon inhibition of 90% ([2]; molar ratio 1:32)	Overall combinatory antiviral activity [2]	Volume (SD) Antagonism [2]	Volume (SD) Synergy [2]	combination effect on antiviral activity [2]	CI (SD) at Replicon inhibition of 50% ([2]; molar ratio 1:10)	CI (SD) at Replicon inhibition of 75% ([2]; molar ratio 1:10)	CI (SD) at Replicon inhibition of 90% ([2]; molar ratio 1:10)	CI (SD) at Replicon inhibition of 50% ([2]; molar ratio 1:20)	CI (SD) at Replicon inhibition of 75% ([2]; molar ratio 1:20)	CI (SD) at Replicon inhibition of 90% ([2]; molar ratio 1:20)
CCCCCOc1ccc(NC(=S)NC(=O)c2cccnc2)cc1C(F)(F)F [ACH-806]	1	about 90%																		
CC1(O)C(O)C(CO)OC1n1ccc(N)nc1=O (centres unmarked) [NM-107]	1	about 90%	4	~99.99	0.69 (0.02)	0.72 (0.06)	0.79 (0.12)	0.67 (0.07)	0.71 (0.05)	0.83 (0.25)	Synergy	2 (2) μM^2%	116 (77) μM^2%	synergistic antiviral activity						
CCC[C@H](NC(=O)[C@@H]1[C@H]2CCC[C@H]2CN1C(=O)[C@@H](NC(=O)[C@@H](NC(=O)c1cnccn1)C1CCCCC1)C(C)(C)C)C(=O)C(=O)NC1CC1 [VX-950, telaprevir]											Synergy	8 (3) μM^2%	119 (4) μM^2%	synergistic antiviral activity	0.86 (0.09)	0.82 (0.11)	0.83 (0.13)	0.79 (0.06)	0.61 (0.12)	0.50 (0.15)
